For experiment [1], the system named is coffee berry borer Hypothenemus hampei. In words: Field trapping trials in Costa Rica (Brocap traps in arabica coffee plantation). Type of experiment: in vivo. Conditions: Costa Rica field tests; result in words. The procedure: The trials carried out above were supplemented in 2017 in Costa Rica, in a context of larger coffee berry borer populations. The trapping trials were carried out between Feb. 21 and Apr. 27, 2017, in the commercial arabica coffee plantations of the CATIE (Centro Agronómico Tropical de Investigación y Enseñanza) [The Tropical Agricultural Research and Higher Education Center] in Turrialba, Costa Rica. […] The Coffea arabica var. caturra plantations, located at approximately 600 meters of altitude, were planted in 2010 in combination with Erythrina poeppigiana as shade trees. The rows are oriented along the contour lines with a spacing of 80 cm between the plants and 2 meters between the rows (6300 plants/ha). All of the plots benefit from considerable annual maintenance: pluriannual weeding or chemical weed-killing between the rows, chemical fertilization during fruit formation, fungicide and optionally insecticide treatments in the event of coffee berry borer infestation. The yields therefrom are medium, about 1000 kg/ha/year of green bean coffee. Brocap® traps were placed directly in the coffee trees, suspended from the branches at a height of approximately 1 meter and with a spacing between the traps of approximately 20 meters. […] The number of coffee berry borers trapped was recorded daily. […]

Experiment [2] shares this test system. Put plainly: Field trapping trials in Brazil (Unitrap traps in arabica coffee plantation). Type of experiment: in vivo. Conditions: Brazil field tests, result in words. The procedure: The trapping trials were carried out between Jan. 8 and Mar. 31, 2016, during the fruit maturation phase, in an arabica coffee plantation conducted under biodynamic conditions in the municipality of […] Boa Vista, in the State of São Paulo in Brazil, at an altitude of 800 m. For each test, three plots received trials, each representing a random complete block. The Coffea arabica var. tupi plantations were set up at the beginning of the 2000s in combination with shade trees (Acacia mangium, Acacia auriculiformis, […] sepium, Leucaena leucocephala). The rows are oriented along the contour lines with a variable spacing according to the plots (0.6 to 0.75×3 to 3.6 meters), and the shade trees are planted at regular intervals in the rows of coffee trees. All of the plots benefit from considerable annual maintenance: regular cutting between the rows, organic fertilization and weeding during fruit formation, foliar fertilization during bean swelling and maturation. […] The traps (Pherobank Unitrap wing model) were placed directly in the coffee trees, suspended from the branches at a height of 1.20 meters or as high as possible when the plants were smaller. The spacing between the traps is approximately 20 meters. The products used were supplied by Sigma-Aldrich. They are: The products were placed in 2 ml glass vials, in which the opening of the septum allows free diffusion by evaporation. A first diffuser contained 0.5 ml of ethanol and 0.5 ml of methanol. A second diffuser contained, where appropriate, the terpenoids diluted in paraffin (0.5 ml of (-)-limonene or 0.5 ml of (+)-limonene, 0.5 ml of paraffin and where appropriate 0.1 ml of (-)-α-pinene). The number of coffee berry borers trapped was recorded daily, and the modes tested were modified each week which represents a test. Each recording in each block represents a repetition. Between each test, the traps were washed with a 2% TFD4 solution and the diffusers were changed.

The structures appear in SMILES notation. Entries after “also recorded” stand apart in the source; their conditions may differ.

`CCCCC(CC)CO` (racemic) [2-ethyl-1-hexanol, 2-Ethyl-1-hexanol]: the “Effect on number of borers trapped when combined with the ethanol/methanol mixture, compared with the ethanol/methanol mixture alone” value in experiment [1] is “clearly increased; also recorded: makes it possible to increase the trappings”.
For the molecule `C=C(C)[C@H]1CC=C(C)CC1` [(+)-limonene, (R)-(+)-Limonene, reference compound], the figures for the “Effect on number of borers trapped when combined with the ethanol/methanol mixture, compared with the alcohols alone” value in experiment [2] and in experiment [2] (listed as (+) enantiomer of limonene) were “did not make it possible to improve the captures” and “does not increase the number of borers trapped”, respectively.
As for `C=C(C)[C@@H]1CC=C(C)CC1` [(−)-limonene, (S)-(−)-Limonene], the “Effect on number of borers trapped when combined with the ethanol/methanol mixture, compared with the alcohols alone” value in experiment [2] is reported as “improves the attractiveness; also recorded: significantly increased; also recorded: clearly increased”. Moreover, in experiment [1], the “Effect on number of borers trapped when combined with the ethanol/methanol mixture, compared with the ethanol/methanol mixture alone” value is “clearly increased”.
As to `C=CC(C)(O)CCC=C(C)C` (stereo not drawn) [linalool, reference compound], in experiment [2], the “Effect on number of borers trapped when combined with the ethanol/methanol mixture, compared with the alcohols alone” value is recorded as “virtually disappears”.

The record behind these values is US20190307123A1, “KIT OF ATTRACTANTS FOR ATTRACTING THE COFFEE BERRY BORER” (INSTITUT NATIONAL DE LA RECHERCHE AGRONOMIQUE, priority 2016, published 2019).
